{
  "source": "paper PMC7834738",
  "about": "(Molecular Therapy, 2020)",
  "key": {"[1]": {"tested_on": "SARS-CoV-2 (USA_WA1/2020)", "format": "cell-based"}, "SARS-CoV-2 [2]": {"tested_on": "SARS-CoV-2", "details": "single agent; cited from earlier work"}, "Vero E6 cells": {"tested_on": "Vero E6 cells", "format": "cell-based"}, "SARS-CoV-2 [3]": {"tested_on": "SARS-CoV-2", "details": "cited from earlier work"}, "[4]": {"details": "healthy adults; cited from earlier work"}, "COVID-19": {"tested_on": "COVID-19", "details": "392 participants, outpatient setting; cited from earlier work"}},
  "note": "Entries after “also recorded” stand apart in the source; their conditions may differ.",
  "data": [
    {"smiles": "CCN(CC)Cc1cc(Nc2ccnc3cc(Cl)ccc23)ccc1O", "note": "[Amodiaquine]", "values": [
      {"measurement": "antagonism against GS-441524", "setting": "[1]", "result": "not"},
      {"measurement": "concentrations that significantly antagonized against remdesivir", "setting": "[1]", "result": "0.625 to 5", "unit": "µM"},
      {"measurement": "interaction with nitazoxanide in CPE assay", "setting": "[1]", "result": "notable synergism"},
      {"measurement": "interaction with remdesivir at high concentrations", "setting": "[1]", "result": "synergize"},
      {"measurement": "interaction with remdesivir in CPE assay", "setting": "[1]", "result": "strong antagonistic effect; also recorded: antagonize"},
      {"measurement": "fold less potent in Calu-3 (TMPRSS2+) than in Vero E6", "setting": "SARS-CoV-2 [2]", "result": "> 10", "unit": "fold"}
    ]},
    {"smiles": "CCOC(=O)c1c(CSc2ccccc2)n(C)c2cc(Br)c(O)c(CN(C)C)c12", "note": "[Arbidol]", "values": [
      {"measurement": "concentrations showing antagonism against remdesivir", "setting": "[1]", "result": "123 to 370", "unit": "nM"},
      {"measurement": "concentrations synergizing with remdesivir", "setting": "[1]", "result": "3 to 10", "unit": "µM"},
      {"measurement": "interaction with remdesivir in CPE assay", "setting": "[1]", "result": "antagonize"}
    ]},
    {"smiles": "N#C[C@@]1(c2ccc3c(N)ncnn23)O[C@H](CO)[C@@H](O)[C@H]1O", "note": "[GS-441524]", "values": [
      {"measurement": "CPE", "setting": "[1]", "result": "≈ 0"}
    ]},
    {"smiles": "OC(c1cc(C(F)(F)F)nc2c(C(F)(F)F)cccc12)C1CCCCN1", "note": "(centres unmarked) [Mefloquine]", "values": [
      {"measurement": "antagonism against GS-441524", "setting": "[1]", "result": "not"},
      {"measurement": "concentrations that significantly antagonized against remdesivir", "setting": "[1]", "result": "0.625 to 1.25", "unit": "µM"},
      {"measurement": "interaction with remdesivir at high concentrations", "setting": "[1]", "result": "synergize"},
      {"measurement": "interaction with remdesivir in CPE assay", "setting": "[1]", "result": "strong antagonistic effect; also recorded: antagonize"}
    ]},
    {"smiles": "CC(=O)Oc1ccccc1C(=O)Nc1ncc([N+](=O)[O-])s1", "note": "[Nitazoxanide]", "values": [
      {"measurement": "nitazoxanide concentrations with complete rescue of CPE", "setting": "[1]", "result": "0.625 to 5", "unit": "µM"},
      {"measurement": "cytotoxicity", "setting": "Vero E6 cells", "result": "not cytotoxic"},
      {"measurement": "toxicity to Vero E6 cells", "setting": "Vero E6 cells", "result": "~20", "unit": "%"},
      {"measurement": "IC50", "setting": "SARS-CoV-2 [3]", "result": "~2000", "unit": "nM"},
      {"measurement": "tolerability", "setting": "[4]", "result": "well tolerated"},
      {"measurement": "efficacy with respect to 7-day viral load and symptom resolution", "setting": "COVID-19", "result": "modest efficacy"}
    ]},
    {"smiles": "CCOC(=O)C1=C[C@@H](OC(CC)CC)[C@H](NC(C)=O)[C@@H](N)C1", "note": "[Oseltamivir phosphate]", "values": [
      {"measurement": "antagonism with remdesivir", "setting": "[1]", "result": "no antagonism"}
    ]},
    {"smiles": "CCC(CC)COC(=O)[C@H](C)N[P@](=O)(OC[C@H]1O[C@@](C#N)(c2ccc3c(N)ncnn23)[C@H](O)[C@@H]1O)Oc1ccccc1", "note": "[Remdesivir]", "values": [
      {"measurement": "CPE", "setting": "[1]", "result": "≈ 0"},
      {"measurement": "interaction with nitazoxanide in CPE assay", "setting": "[1]", "result": "notable synergism"}
    ]}
  ]
}
